Test results published in patent US12636272B2, “Method and composition for inhibiting virus infection” (ARJIL BIOTECH HOLDING COMPANY LIMITED, priority 2020, dated 2026).
Several values for one entry are separate records, joined by “and”; a condition that tells them apart may be missing. Equal entries are not always repeated.

How the values were obtained:
[1] = tested on: HBV; test: HBsAg secretion of HepG2.2.15 cells (ELISA); type: cell-based, Hepatitis B virus (HBV)
From the text: (§1) Continuous HBV proliferation can be achieved in HepG2.2.15 cells (RRID:CVCL_L855) stably transfected with the HBV genome of the adw2 subtype. HepG2.2.15 cells are used because of the unlimited supply and constant quality and were maintained in Dulbecco's modified Eagle medium (DMEM; Invitrogen) supplemented with 10% heat-inactivated fetal bovine serum (FBS; Thermo) plus 100 units of penicillin and […] of streptomycin per ml (both from Invitrogen).
(§2) To test whether AR100-DS1 had any effect on HBV genome replication, assembly, or secretion, HepG2.2.15 cells that were stably transfected with HBV genome, were used to incubate with AR 100-DS1 for 48 hours, then HBsAg and HBV DNA collected from medium were measured by ELISA and real-time PCR.

[2] = tested on: HBV; test: HBV DNA level in the culture medium of HepG2.2.15 cells (real-time PCR); type: cell-based, Hepatitis B virus (HBV)
From the text: as §1
The culture medium from drug-treated HepG2.2.15 cells is clarified by centrifugation at 1,000× g at 4° C. for 10 min, and then the supernatant is layered on top of a 20% sucrose cushion (20% sucrose, 20 mM HEPES, pH 7:4, 0.1% bovine serum albumin [BSA]) and centrifuged at 197,000× g for 3 h at 4° C. to pellet the HBV particles, which are then concentrated 100 fold to detect HBV DNA.
Total DNA is extracted with a Genomic DNA isolation kit (Nexttee Biotechnologie, Germany). Total RNA is isolated from cultured cells using TRIzol® reagent (Invitrogen). […] The results are analyzed with the iCycler iQ real-time PCR detection system (Bio-Rad). […]
as §2

[3] = tested on: HBV; test: HBV infectivity/entry in HuS-E/2 cells (HBsAg ELISA, HBV mRNA real-time PCR); type: cell-based, Hepatitis B virus (HBV)
[4] = tested on: HuS-E/2 cells; test: Cell viability of HuS-E/2 cells (MTT assay); type: cell-based; conditions: 0-1000 μg/ml AR100-DS1 for 48 h
[5] = tested on: HepG2.2.15 cells; test: Cell viability of HepG2.2.15 cells; type: cell-based
[6] = tested on: SARS-COV-2 (NTU13); test: Plaque reduction assay in Vero E6 cells; type: cell-based; conditions: 1 μM RDV*
[7] = HuS-E/2 cells, 0, 5 and 10 of AR100-DS1 during infection for 18 h, then 48 hours

For C=C1C(=O)O[C@H]2/C=C(\C)CC3C=C(CC/C=C(\C)CC[C@H]12)C(=O)O3 (some centres unmarked) [AR100-DS1], the “secretion of HBsAg” value ([1]; 0, 20 and 40 μg/ml AR100-DS1, HepG2.2.15 cells (FIG. 1C)) was “significantly inhibited”, the “secretion of HBsAg reduced to” value ([1]; 10 μg/ml AR100-DS1, 48 hours, HepG2.2.15 cells) was 75.25% and the “secretion of HBsAg reduced to” value ([1]; 20 μg/ml AR100-DS1, 48 hours, HepG2.2.15 cells (FIGS. 1A and 1B)) was 69.77% and 63.00%. For the same molecule, the “secretion of HBsAg reduced to” value ([1]; 50 μg/ml AR100-DS1, 48 hours, HepG2.2.15 cells) was 56.78%, the “HBV DNA level in medium” value ([2]; 20 μg/ml AR100-DS1, 48 hours) was “significantly reduced” and the “HBV DNA level in medium” value ([2]; 40 μg/ml AR100-DS1, 48 hours) was “significantly reduced”. The “entry of HBV in HuS-E/2 cells” value ([3]; HuS-E/2 cells) was “could not prevent HBV entering into HuS-E/2 cells”, the “HBV mRNA expression level” value [3, 7] was “neither secretion of HBsAg in the medium nor HBV mRNA expression level showed dose-dependent reduction” and the “secretion of HBsAg in the medium” value [3, 7] was “neither secretion of HBsAg in the medium nor HBV mRNA expression level showed dose-dependent reduction”. For the same molecule, the cell viability [4] was “marked dose-dependent reduction in cell viability” and the cell viability [5] was “marked dose-dependent reduction in cell viability”.

For CCC(CC)COC(=O)[C@H](C)N[P@](=O)(OC[C@H]1O[C@@](C#N)(c2ccc3c(N)ncnn23)[C@H](O)[C@@H]1O)Oc1ccccc1 [RDV, remdesivir], the “Inhibition (%) to DMSO mean” value [6] was 80%, the “Inhibition (%) to virus mean” value [6] was 82% and the “Plaque number per well mean” value [6] was 32.
